Measured values: EP0745595A1, “3-(3-Aryloxyphenyl)-1-(substituted methyl)-s-triazine-2,4,6-oxo or thiotrione herbicidal agents” (American Cyanamid Company, priority 1995, dated 1996)

How the values were obtained:
Format in all cases: in vivo
ZEA MAYS L. = assay: Postemergence herbicidal evaluation, ZEAMX (Corn, Field)
Summary of the method: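 This greenhouse postemergence test treated corn plants about two weeks old. Compounds in a 50/50 acetone/water mixture with 0.5% TWEEN®20 were applied through a spray nozzle at 40 psi. After four to five weeks, injury was scored 0-9 against an untreated control, judging stand, vigor, malformation, size, chlorosis and overall appearance. Repeated tests were averaged.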

[1] = tested on: ORYZA SATIVA, L. TEBONNET; assay: Rice tolerance to post-transplant applications under flooded paddy conditions, ORYSAT (Rice, Tebonnet); conditions: post-transplant rice, rated three to four weeks after treatment;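 note: applied to flooded soil surface three days after transplanting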
Summary of the method: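 Visual 0-9 rating against untreated control (stand, vigor, malformation, size, chlorosis, overall appearance), taken 3-4 weeks after treatment. Flooded silt loam, water at 1.5-3 cm; two 10-day-old seedlings per pot; compound applied to flooded soil surface 3 days post-transplant at ~0.5-0.063 kg/ha.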

[2] = tested on: ECHINOCHLOA CRUS-GALLI, (L) BEAU; assay: Postemergence herbicidal evaluation, ECHCG (Barnyardgrass); design: key to ECHCG rating / Herbicidal effect rating, ECHCG / ECHCG: 0-9 visual rating scale vs untreated control
Summary of the method: (§1)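 Spray: acetone/water 50/50 + 0.5% TWEEN 20; rate ~0.125–0.500 kg/ha; nozzle 40 psi; ~2-wk seedlings. Read: visual 0–9 rating at 4–5 wk post-treatment vs control; replicate tests averaged.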

CHENOPODIUM ALBUM, L. [3] = assay: Preemergence herbicidal evaluation, CHEAL (Lambsquarters, Common); conditions: for CHEAL rating: four to five weeks after treatment
Summary of the method: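 Preemergence, greenhouse: seed + potting soil sown on ~1 inch soil in cups; aqueous acetone spray, ~0.125–0.50 kg/ha equivalent; rated 0-9 vs control at 4–5 wk.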

[4] = tested on: ABUTILON THEOPHRASTI, MEDIC.; assay: Postemergence herbicidal evaluation, ABUTH (Velvetleaf); conditions: for ABUTH, herbicide rating (0-9): rated four to five weeks after treatment, averaged
Summary of the method: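 This postemergence herbicide test used two-week-old velvetleaf seedlings grown in jiffy flats. Each compound was sprayed at 40 psi as a dispersion in 50/50 acetone/water with 0.5% TWEEN®20 surfactant. Plants then received routine greenhouse care. After four to five weeks, injury was scored visually on a 0-9 scale against a control, and replicate tests were averaged.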

[5] = tested on: TRITICUM AESTIVUM, CV. APOLLO; assay: Postemergence herbicidal evaluation, TRZAWO (Wheat, Winter, CV. APOLLO)
Summary of the method: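 This greenhouse postemergence test applied compounds to roughly two-week-old wheat seedlings grown in jiffy flats. The spray solution was 50/50 acetone/water with 0.5% TWEEN®20, a polyoxyethylene sorbitan monolaurate, sprayed from a nozzle run at 40 psi. After four to five weeks of standard greenhouse care, injury was scored from 0 to 9 by comparing stand, vigor, malformation, size, chlorosis and overall appearance with a control. Multiple tests were averaged.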

CHENOPODIUM ALBUM, L. [6] = assay: Postemergence herbicidal evaluation, CHEAL (Lambsquarters, Common)
Summary of the method: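 Postemergence herbicidal activity on Chenopodium album was tested by spraying two-week-old seedlings grown in jiffy flats with compound in acetone/water (50/50) plus 0.5% TWEEN®20, using a 40 psi nozzle. Four to five weeks after treatment, stand, vigor, malformation, size, chlorosis and overall appearance were scored 0-9 relative to controls, with repeat tests averaged.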

[7] = tested on: SETARIA VIRIDIS, (L) BEAU; assay: Postemergence herbicidal evaluation, SETVI (Foxtail, Green); design: key to SETVI rating / Herbicidal effect rating, SETVI / SETVI: 0-9 visual rating scale vs untreated control; conditions: for SETVI, herbicide rating (0-9): rated four to five weeks after treatment, averaged
Summary of the method: as §1

[8] = tested on: AMBROSIA ARTEMISIIFOLIA, L.; assay: Postemergence herbicidal evaluation, AMBEL (Ragweed, Common)
Summary of the method: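 Postemergence herbicidal activity on AMBEL (common ragweed) was assessed on two-week-old seedlings grown in jiffy flats. Treatment solutions of 50/50 acetone/water with 0.5% TWEEN®20 surfactant were sprayed at 40 psi. After four to five weeks in the greenhouse, plants were scored 0-9 against a control for stand, vigor, malformation, size, chlorosis and overall appearance, with multiple tests averaged.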

IPOMOEA SPP. = assay: Postemergence herbicidal evaluation, IPOSS (Morningglory spp.)
Summary of the method: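 In this greenhouse postemergence herbicide test on Ipomoea spp. (morningglory), compounds in 50/50 acetone/water with 0.5% TWEEN®20 were sprayed at 40 psi onto seedlings about two weeks old grown in jiffy flats. After four to five weeks, injury was scored on a 0-9 scale covering stand, vigor, malformation, size, chlorosis and overall appearance versus control, with repeat tests averaged.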

GALIUM APARINE = assay: Postemergence herbicidal evaluation, GALAP (Galium); design: key to GALAP rating / Herbicidal effect rating, GALAP / GALAP: 0-9 visual rating scale vs untreated control; conditions: for GALAP, herbicide rating (0-9): rated four to five weeks after treatment, averaged
Summary of the method: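 In this postemergence greenhouse test, two-week-old Galium aparine seedlings grown in jiffy flats received a 40 psi spray of compound in acetone/water (50/50) with 0.5% TWEEN®20 surfactant. After four to five weeks, stand, vigor, malformation, size, chlorosis and overall appearance were compared with untreated controls on a 0-9 scale, averaging multiple tests.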

Structure (SMILES): COC(=O)Cn1c(=O)n(C)c(=O)n(-c2cc(Oc3c(F)cc(C(F)(F)F)cc3Cl)ccc2Br)c1=O [Compound 2, Methyl 3-{2-bromo-5-[(2-chloro-α,α,α,6-tetrafluoro-p-tolyl)oxy]phenyl}tetrahydro-5-methyl-2,4,6-trioxo-s-triazine-1(2H)-acetate]
- Herbicidal effect rating, ZEAMX (ZEA MAYS L.; 0.063 kg/ha): 7.7
- Herbicidal effect rating, ZEAMX (ZEA MAYS L.; 0.125 kg/ha): 8.4
- Herbicidal effect rating, ZEAMX (ZEA MAYS L.; 0.250 kg/ha): 8.3
- Herbicidal effect rating, ZEAMX (ZEA MAYS L.; 0.500 kg/ha): 8.3
- ORYSAT herbicidal rating (rice tolerance) ([1]; Rate 0.063 kg/ha): 2.5
- ORYSAT herbicidal rating (rice tolerance) ([1]; Rate 0.125 kg/ha): 4.0
- ORYSAT herbicidal rating (rice tolerance) ([1]; Rate 0.250 kg/ha): 5.5
- ORYSAT herbicidal rating (rice tolerance) ([1]; Rate 0.500 kg/ha): 6.7
- Herbicidal effect rating, ECHCG ([2]; 0.063 kg/ha): 5.0
- Herbicidal effect rating, ECHCG ([2]; 0.125 kg/ha): 6.7
- Herbicidal effect rating, ECHCG ([2]; 0.250 kg/ha): 9.0
- Herbicidal effect rating, ECHCG ([2]; 0.500 kg/ha): 9.0
- CHEAL (CHENOPODIUM ALBUM, L. [3]; Rate 0.063 kg/ha): 9.0
- CHEAL (CHENOPODIUM ALBUM, L. [3]; Rate 0.125 kg/ha): 9.0
- CHEAL rating (CHENOPODIUM ALBUM, L. [3]; Rate 0.125 kg/ha): 9.0
- CHEAL (CHENOPODIUM ALBUM, L. [3]; Rate 0.250 kg/ha): 9.0
- CHEAL rating (CHENOPODIUM ALBUM, L. [3]; Rate 0.250 kg/ha): 9.0
- CHEAL (CHENOPODIUM ALBUM, L. [3]; Rate 0.500 kg/ha): 9.0
- CHEAL rating (CHENOPODIUM ALBUM, L. [3]; Rate 0.500 kg/ha): 9.0
- Herbicidal effect rating, ABUTH ([4]; 0.063 kg/ha): 8.8
- Herbicidal effect rating, ABUTH ([4]; 0.125 kg/ha): 9.0
- Herbicidal effect rating, ABUTH ([4]; 0.250 kg/ha): 9.0
- Herbicidal effect rating, ABUTH ([4]; 0.500 kg/ha): 9.0
- ABUTH, herbicide rating (0-9) ([4]; Rate 0.125 kg/ha): 9.0
- ABUTH, herbicide rating (0-9) ([4]; Rate 0.250 kg/ha): 9.0
- ABUTH, herbicide rating (0-9) ([4]; Rate 0.500 kg/ha): 9.0
- Herbicidal effect rating, TRZAWO ([5]; 0.063 kg/ha): 7.0
- Herbicidal effect rating, TRZAWO ([5]; 0.125 kg/ha): 7.5
- Herbicidal effect rating, TRZAWO ([5]; 0.250 kg/ha): 8.0
- Herbicidal effect rating, TRZAWO ([5]; 0.500 kg/ha): 8.5
- Herbicidal effect rating, CHEAL (CHENOPODIUM ALBUM, L. [6]; 0.063 kg/ha): 8.8
- Herbicidal effect rating, CHEAL (CHENOPODIUM ALBUM, L. [6]; 0.125 kg/ha): 8.7
- Herbicidal effect rating, CHEAL (CHENOPODIUM ALBUM, L. [6]; 0.250 kg/ha): 8.5
- Herbicidal effect rating, CHEAL (CHENOPODIUM ALBUM, L. [6]; 0.500 kg/ha): 8.5
- Herbicidal effect rating, SETVI ([7]; 0.063 kg/ha): 7.5
- Herbicidal effect rating, SETVI ([7]; 0.125 kg/ha): 9.0
- Herbicidal effect rating, SETVI ([7]; 0.250 kg/ha): 9.0
- Herbicidal effect rating, SETVI ([7]; 0.500 kg/ha): 9.0
- SETVI, herbicide rating (0-9) ([7]; Rate 0.125 kg/ha): 9.0
- SETVI, herbicide rating (0-9) ([7]; Rate 0.250 kg/ha): 9.0
- SETVI, herbicide rating (0-9) ([7]; Rate 0.500 kg/ha): 9.0
- Herbicidal effect rating, AMBEL ([8]; 0.063 kg/ha): 8.0
- Herbicidal effect rating, AMBEL ([8]; 0.125 kg/ha): 7.3
- Herbicidal effect rating, AMBEL ([8]; 0.250 kg/ha): 7.5
- Herbicidal effect rating, AMBEL ([8]; 0.500 kg/ha): 8.0
- Herbicidal effect rating, IPOSS (IPOMOEA SPP.; 0.063 kg/ha): 8.3
- Herbicidal effect rating, IPOSS (IPOMOEA SPP.; 0.125 kg/ha): 8.7
- Herbicidal effect rating, IPOSS (IPOMOEA SPP.; 0.250 kg/ha): 9.0
- Herbicidal effect rating, IPOSS (IPOMOEA SPP.; 0.500 kg/ha): 9.0
- Herbicidal effect rating, GALAP (GALIUM APARINE; 0.063 kg/ha): 9.0
- Herbicidal effect rating, GALAP (GALIUM APARINE; 0.125 kg/ha): 9.0
- Herbicidal effect rating, GALAP (GALIUM APARINE; 0.250 kg/ha): 9.0
- Herbicidal effect rating, GALAP (GALIUM APARINE; 0.500 kg/ha): 9.0
- GALAP, herbicide rating (0-9) (GALIUM APARINE; Rate 0.125 kg/ha): 9.0
- GALAP, herbicide rating (0-9) (GALIUM APARINE; Rate 0.250 kg/ha): 9.0
- GALAP, herbicide rating (0-9) (GALIUM APARINE; Rate 0.500 kg/ha): 9.0
